# Assay results taken from the NIST ThermoML archive (doi:10.1016/j.jct.2019.05.005).
# ± gives the expanded uncertainty stated by the source.
# Conditions: Liquid; Ebulliometric method (Recirculating still)
row,Normal boiling temperature,Compound
1,99.48 ± 1 °C,CCC(C)O (centres undefined) [butan-2-ol]
2,190.02 ± 1 °C,C[S+](C)[O-] [dimethyl sulfoxide]
3,112.18 ± 1 °C,CCC(C)OC(C)=O (centres undefined) [1-methylpropyl ethanoate]
4,165.80 ± 1 °C,"CC(=O)N(C)C [N,N-dimethylethanamide]"
